Reference: paper PMC8308678, “Treatment with Micafungin in a Preterm Neonate with an Invasive Candida parapsilosis Infection after a Severe Terlipressin-Induced Skin Necrosis” (Pathogens, 2021)
≈ marks a conversion by molar mass, not a printed value. Like-named read-outs stand apart in the source and are kept apart here. Starred links: 1 amine or outer side, 2 acyl side, 3 side chain; linkers in the order of their positions; H or OH if unused. Positions of bridges follow the written chain, without caps; N, C: chain ends. Non-standard residues stand in square brackets, D forms with d. Residues, ends and D or L forms follow the SMILES beside them. *: point of attachment. hTyr(3S-OH,4S-OH,3'-OSO3H) = N[C@H](C(=O)O)[C@H](O)[C@@H](O)c1ccc(O)c(OS(=O)(=O)O)c1; pTerphenylCO(4''-OnC5H11) = CCCCCOc1ccc(-c2ccc(-c3ccc(C(=O)*)cc3)cc2)cc1; Orn(4R-OH,5R-OH) = O=C([C@H](C[C@@H](O)[C@@H](O)N[*:3])N[*:1])[*:2]; hTyr(3S-OH,4S-OH) = N[C@H](C(=O)O)[C@H](O)[C@@H](O)c1ccc(O)cc1; Pro(3S-OH,4S-Me) = C[C@H]1CN[C@H](C(=O)O)[C@H]1O; X1 = CCCCCOc1ccc(-c2cc(-c3ccc(C(=O)*)cc3)no2)cc1; Gln(3R-OH) = NC(=O)C[C@@H](O)[C@H](N)C(=O)O; Hyp = O=C(O)[C@@H]1C[C@@H](O)CN1

How the values were obtained:
Candida parapsilosis = assay: microbe, parasite or virus in culture; type: cell-based; conditions: CLSI guidelines; for MIC: isolated Candida parapsilosis strain (cutaneous swab and urine culture); for Susceptibility of the isolated Candida strain: isolated Candida parapsilosis strain
Protocol: (§1) Cutaneous swab and urine culture both yielded Candida parapsilosis. The fungal load in urine was 1,000,000 CFU/mL. Susceptibility tests were performed according to the Clinical and Laboratory Standards Institute (CLSI) guidelines. Blood cultures resulted negative, but the child had been on antimicrobial therapy for several days. The isolated Candida strain was susceptible to micafungin (MIC, 0.5 µg/mL), anidulafungin (MIC, 2 µg/mL), fluconazole (MIC, 0.5 µg/mL), itraconazole (MIC, 0.06 µg/mL), voriconazole (MIC, <0.008 µg/mL) and amphotericin B (MIC, 0.5 µg/mL). Among the effective antifungals, we chose micafungin because of the feasibility of plasma concentration monitoring via heel stick capillary samples [8]. After given and obtained informed consent from the parents, both in relation to the high dosage of micafungin to be administered and monitored and to the participation in clinical trials and publications, micafungin was administered intravenously at a dose of 8 mg/kg/day; it was diluted in 0.9% saline solution at a concentration of 2 mg/mL and infused intravenously through epicutaneo-cava catheter in one hour. Plasma micafungin concentrations were measured by high performance liquid chromatography (HPLC) on the third day of the starting of therapy. The lower limit of detection (LLOD) of micafungin was 0.5 mg/L, and the lower limit of quantification (LLOQ) was 1 mg/L. (Table 1).

[1] = Plasma micafungin concentration monitoring by HPLC; type: in vivo, human preterm neonate; conditions: one patient
Protocol: as §1
(§2) Given the severe clinical conditions of our patient, the epicutaneo-cava catheter was difficult to replace safely. The systemic therapy allowed complete infection control. […] We monitored plasma concentration of micafungin on 0.3 mL heel puncture blood samples, as previously described, in order to avoid excessive blood draws in a patient of low weight and in such severe clinical conditions.

[2] = system: invasive Candida parapsilosis infection; assay: Clinical treatment of invasive Candida parapsilosis infection (case report); type: in vivo, human preterm neonate; conditions: 8 mg/kg/day; extremely preterm neonate with invasive Candida parapsilosis infection
Protocol: as §1, with “1). […]” for “1).”

[3] = Clinical tolerability of micafungin (case report); type: in vivo, human preterm neonate; conditions: 8 mg/kg/day; for Side effects / tolerability: baby with previous cholestasis
Protocol: as §2

[4] = system: confirmed or suspected ICIs; conditions: 8 mg/kg/day; 35 neonates with confirmed or suspected ICIs; cited from earlier work
Text: Invasive Candida infections (ICIs) are a major cause of morbidity and mortality among very preterm infants; Candida albicans is the most frequently occurring species, although Candida parapsilosis infections are increasingly reported in preterm neonates. Despite the high minimum inhibitory concentration (MIC) necessary for Candida parapsilosis eradication, echinocandins have a prominent role when an ICI occurs in very preterm infants. These patients often carry a central vascular catheter in which Candida parapsilosis forms a biofilm, due to its adherence properties that favo ...

MIC (Candida parapsilosis; read-out: MIC) [µg/mL]	Structure (SMILES)	Susceptibility of the isolated Candida strain (Candida parapsilosis)	MIC (Candida parapsilosis) [µg/mL]	also measured
0.5 (≈ 0.541 µM)	C[C@@H]1[C@H](O)[C@@H](C)/C=C/C=C/C=C/C=C/C=C/C=C/C=C/[C@H](O[C@@H]2O[C@H](C)[C@@H](O)[C@H](N)[C@@H]2O)C[C@@H]2O[C@](O)(C[C@@H](O)C[C@@H](O)[C@H](O)CC[C@@H](O)C[C@@H](O)CC(=O)O[C@H]1C)C[C@H](O)[C@H]2C(=O)O [amphotericin B]	susceptible	–	–
–	CCCCCOc1ccc(-c2ccc(-c3ccc(C(=O)N[C@H]4C[C@@H](O)[C@@H](O)NC(=O)[C@@H]5[C@@H](O)[C@@H](C)CN5C(=O)[C@H]([C@@H](C)O)NC(=O)[C@H]([C@H](O)[C@@H](O)c5ccc(O)cc5)NC(=O)[C@@H]5C[C@@H](O)CN5C(=O)[C@H]([C@@H](C)O)NC4=O)cc3)cc2)cc1 [anidulafungin] ({pTerphenylCO(4''-OnC5H11)}-[Orn(4R-OH,5R-OH)]T[Hyp][hTyr(3S-OH,4S-OH)]T[Pro(3S-OH,4S-Me)]; lactam 1-C; N-terminus assumed)	susceptible	2 (≈ 1.75 µM)	–
0.5 (≈ 1.63 µM)	OC(Cn1cncn1)(Cn1cncn1)c1ccc(F)cc1F [fluconazole]	susceptible	–	–
0.06 (≈ 0.085 µM)	CCC(C)n1ncn(-c2ccc(N3CCN(c4ccc(OCC5COC(Cn6cncn6)(c6ccc(Cl)cc6Cl)O5)cc4)CC3)cc2)c1=O (stereo not shown) [itraconazole]	susceptible	–	–
–	CCCCCOc1ccc(-c2cc(-c3ccc(C(=O)N[C@H]4C[C@@H](O)[C@@H](O)NC(=O)[C@@H]5[C@@H](O)[C@@H](C)CN5C(=O)[C@H]([C@H](O)CC(N)=O)NC(=O)[C@H]([C@H](O)[C@@H](O)c5ccc(O)c(OS(=O)(=O)O)c5)NC(=O)[C@@H]5C[C@@H](O)CN5C(=O)[C@H]([C@@H](C)O)NC4=O)cc3)no2)cc1 [micafungin] (X1-[Orn(4R-OH,5R-OH)]T[Hyp][hTyr(3S-OH,4S-OH,3'-OSO3H)][Gln(3R-OH)][Pro(3S-OH,4S-Me)]; lactam 1-C)	susceptible	0.5 (≈ 0.394 µM)	Plasma Cmax/MIC ratio ([1]; 8 mg/kg/day micafungin dose): > 10; Cmax ([1]; human, in vivo, iv, 8 mg/kg/day i.v. over one hour, third day of therapy, plasma, HPLC, read-out: Plasma micafungin concentration, 1 h after infusion (C max)): 11800 ng/mL; level at -0.5 h ([1]; human, iv, 8 mg/kg/day i.v. over one hour, third day of therapy, plasma, HPLC, heel puncture blood samples, read-out: Plasma micafungin concentration, 30 min before infusion (C min)): 3730 ng/mL; level at 2 h ([1]; human, iv, 8 mg/kg/day i.v. over one hour, third day of therapy, plasma, HPLC, read-out: Plasma micafungin concentration, 2 h after infusion): 9700 ng/mL; level at 8 h ([1]; human, iv, 8 mg/kg/day i.v. over one hour, third day of therapy, plasma, HPLC, read-out: Plasma micafungin concentration, 8 h after infusion): 7900 ng/mL; Clinical efficacy [2]: effective; Side effects / tolerability [3]: did not cause side effects; Side effects / tolerability ([3]; listed as Micafungin): well tolerated; Aspartate aminotransaminase and alanine aminotransaminase ([3]; rapidly returned within normal range after discontinuation of therapy): transient increase; Response [4]: high response
< 0.008	C[C@@H](c1ncncc1F)[C@](O)(Cn1cncn1)c1ccc(F)cc1F [voriconazole]	susceptible	–	–
